Patent publication US9120796B2, “B-lactamase inhibitor picoline salt” (Cubist Pharmaceuticals, Inc., priority 2013, dated 2015)
Where a name gives a salt, the structure may show the parent alone.

Legend:
[1] = Solubility characteristics of crystalline form; assay type: physicochemical; conditions: a particular (crystalline) form
Description: The compound of Formula (II) is the 2-picoline salt of (2S,5R)-2-(1,3,4-oxadiazol-2-yl)-7-oxo-1,6-diazabicyclo[3.2.1]octan-6-yl hydrogen sulfate, i.e., 2-methylpyridin-1-ium (2S,5R)-2-(1,3,4-oxadiazol-2-yl)-7-oxo-1,6-diazabicyclo[3.2.1]octan-6-yl sulfate.

[2] = Solution stability of salt forms (purity change relative to starting purity)
Description: As part of the program to improve the process for the manufacture of the sodium salt of (2S,5R)-2-(1,3,4-oxadiazol-2-yl)-7-oxo-1,6-diazabicyclo[3.2.1]octan-6-yl hydrogen sulfate, a new intermediate capable of isolation and utility in the production was sought.
Additionally, the picoline salt precursor was examined for solution stability as an alternative hold point for the process.

[3] = Stability of isolated solid picoline salt at 2 weeks; assay type: physicochemical; conditions: FIG. 23
Description: Also, the volume inefficiency, throughput bottlenecks, and impurity generation associated with the TBA to Na salt resin exchange process created the need for an improved step. Accordingly, there was a need for a stable solid that could be isolated, stored, and be used as needed to produce the desired sodium API in a reliable, scalable process. In screening different salt forms and examining the potential for crystallizations (as a means to isolate the salt forms), the TBA, pyridine, 5-ethyl-2-methylpyridine, and 2,6-lutidine forms of the API were not able to be successfully isolated in solid form.

Row | solubility characteristics [1] | solution stability in dichloromethane solution ([2]; DCM, room temperature, compared with the TBA salt, FIGS. 22A and 22B) | stability in solution ([2]; in solution, early clinical productions) | stability of isolated solid [3] | Compound | solution stability in aqueous environments ([2]; aqueous solution, high dilution (~1 wt %), FIGS. 21A and 21B)
1 | low solubility | significantly inferior to the TBA salt | unstable in solution | found to be stable | O=C1N2C[C@@H](CC[C@H]2c2nnco2)N1OS(=O)(=O)O [Formula (II), 2-methylpyridin-1-ium (2S,5R)-2-(1,3,4-oxadiazol-2-yl)-7-oxo-1,6-diazabicyclo[3.2.1]octan-6-yl sulfate] | –
2 | – | – | – | – | tetrabutylammonium (2S,5R)-2-(1,3,4-oxadiazol-2-yl)-7-oxo-1,6-diazabicyclo[3.2.1]octan-6-yl sulfate [TBA salt, reference compound] | found to be a risk for long term scale-up
